Columns and labels:
[1] = system: mTORC2-mediated Akt phosphorylation; assay: Activation-induced Akt Ser473 phosphorylation in DCs; type: cell-based, mouse
human myeloid DCs = assay: Costimulatory molecule expression in human myeloid DCs by FACS; type: cell-based; details: R848 1 μg/mL, inhibitors 100 nM
Experimental: FIG. 3. Pharmacological inhibition of mTOR augments the duration of costimulatory molecule expression in human myeloid DCs. (A) Human myeloid DCs were either unstimulated or stimulated with R848 in the presence or absence of rapamycin (RAP) or KU. CD40 and CD86 expression was analyzed by FACS. Day 4 costimulatory molecule expression from a representative donor (5430) is depicted. (B) DCs were treated as in (A) and analyzed daily by FACS for CD40 and CD86 expression. (C) DCs were treated as in (A) and analyzed for viability at indicated times by FACS analysis of 7-AAD staining. For each treatment, data from 4-6 individual donors is depicted.
Human DC Culture: Human myeloid DCs were isolated from human blood using MACS positive selection beads. In brief, filters from hospital blood donors were generously donated by the CVPH Medical Center in Plattsburgh, N.Y. Blood cells were obtained by reverse flushing filters in sterile HBSS. PBMCs were obtained by centrifugation of blood samples over Ficoll-Paque Plus (density 1.077 g/mL) (GE Healthcare). Myeloid DCs were enriched using the BDCA-1 Positive Selection DC Islation Kit (Miltenyi Bioscience) per the manufacturer's instructions. […] At indicated times, DCs were harvested and analyzed by FACS for maturation markers.

bone marrow-derived DCs [2] = assay: DC viability/lifespan by FACS of 7-AAD staining of CD11c+ cells; type: cell-based, mouse; details: treatment alone, no LPS; data not shown
Experimental: (§1) FIG. 1. Inhibition of mTOR expression prolongs DC lifespan and promotes expression of costimulatory molecules CD40 and CD86. (A) DCs were pulsed with Pam2CSK4, LPS, R848, or CpG for 6 hours and then washed and cultured in complete medium. Cell viability was monitored daily by FACS analysis of 7-AAD staining of CD11c^+ cells. (B) Western blot for mTOR and β-actin protein in Luciferase hpRNA (Luc^hp) or mTOR hpRNA (mTOR^hp)-transduced DCs. (C) DCs were stimulated with media alone, LPS, or rapamycin+LPS for 30 minutes. Cells were subsequently fixed and stained for phosphorylated S6 protein as a molecular readout for mTOR activation and analyzed by FACS. (D) Luc^hp and mTOR^hp-transduced DCs were left untreated or stimulated with LPS and monitored daily for cell viability by analysis of 7-AAD staining of CD11c^+ cells. (E) Luc^hp or mTOR^hp DCs were cultured with or without LPS for 24 hours and analyzed by FACS for CD40 and CD86 expression. […]
(§2) FIG. 2. […] Cells were monitored daily for cell viability as described for FIG. 1. […] (B) DCs were unstimulated or stimulated with LPS, RAP+LPS, or KU+LPS and analyzed by FACS 24 hours later for CD40 and CD86 expression. […] (C) DCs were treated as in (B) and analyzed daily by FACS for CD40 and CD86 expression gated on live CD11c^+ cells. […]

bone marrow-derived DCs [3] = assay: Costimulatory molecule expression on DCs by FACS; type: cell-based, mouse
Experimental: as §1, §2

COc1ccc(-c2ccc3c(N4CCOCC4)nc(N4C[C@@H](C)O[C@@H](C)C4)nc3n2)cc1CO [KU, KU 0063794]
activation induced Akt Ser473 phosphorylation [1]: inhibited
costimulatory molecule expression (CD40, CD86) in response to R848 (human myeloid DCs): enhanced
viability of unstimulated DCs (bone marrow-derived DCs [2]): did not impact
duration of expression of CD40 and CD86 in response to LPS (bone marrow-derived DCs [3]; analyzed daily, live CD11c+ cells): prolonged
percentage of DCs expressing CD40 and CD86 (bone marrow-derived DCs [3]; during LPS stimulation, 24 hours, inhibitors 100 nM): increase

Source: patent US20140037606A1, “CELL-BASED, ANTI-CANCER VACCINES” (priority 2012, published 2014)
